In US20180353445A1, “METHODS AND COMPOSITIONS RELATING TO PROTEASOME INHIBITOR RESISTANCE” (Whitehead Institute for Biomedical Research, priority 2017, published 2018):
“Also recorded” adds a separate entry of the source.

What was measured:
T47D cells [1] = assay: Competition co-culture of TurboRFP PSMD2 shRNA and GFP control shRNA T47D cells, FACS/microscopy; type: cell-based, human; conditions: 1:10 plating ratio, panel of proteasome inhibitors
Method: We created two cell lines—one line that expresses red fluorescent protein (turboRFP) and the doxycycline-inducible PSMD2-targeting shRNA and another line that expresses green fluorescent protein (GFP) and a doxycycline-inducible control shRNA (FIG. 6A). First, we induced shRNA expression with doxycycline for 48 hours. After recovery, we mixed shPSMD2-RFP and shControl-GFP cells at different ratios (either 1:1, 1:2, 1:5 or 1:10), adding the cells with reduced PSMD2 as the minority subpopulation. Twenty-four hours after plating, we treated these mixed populations of cells for 48 hours with increasing concentrations of bortezomib (5, 7.5 or 10 nM). We allowed the cells to recover in the absence of bortezomib and then we quantified the red and green cells by FACS analysis (FIG. 6A) and captured representative images by fluorescence microscopy (FIG. 6B),
The experiment described in Example 10 was repeated with minor differences using a panel of different proteasome inhibitors: MLN2238, MLN9708, and oprozomib T47D cells harboring a doxycycline inducible control shRNA (GFP) or a doxycycline-inducible PSMD2 shRNA (TurboRFP) were incubated with doxycycline for 3 days. Cells were collected, counted, and plated at a 1:10 ratio of TurboRFP-expressing PSMD2 shRNA cells/GFP expression control shRNA cells in the absence of Dox. Proteasome inhibitors were added at the specified concentrations and cells were maintained in culture. Cells were allowed to recover in the absence of the proteasome inhibitor and then analyzed by FACS (FIG. 8B, top) or visualized by microscopy (FIG. 8B, bottom). In the absence of proteasome inhibitors, the initial plating ratio of these cells (1:10) was maintained over the duration of the experiment (FIG. 8B). […]
Visualization and FACS analysis of GFP/RFP levels—cells were trypsinized in 100 μL Accumax® solution and further diluted into 100 μl PBSx1. The number of cells with red or areen fluorescent proteins was measured by MACSQuant® VYB according to manufactures protocol. […]

[2] = tested on: T47D cells with doxycycline inducible PSMD2 KD (Lo19S) versus control cells; assay: Lo19S T47D drug screen (PSMD2 KD versus control cells, CellTiter-Glo); type: cell-based, human; conditions: T47D, Lo19S state by dox-inducible PSMD2 shRNA; compound library screen; 72 h; CellTiter-Glo
Method: The effect of each drug on viability of cells was calculated by averaging the duplicate experiments. The data is plotted in FIG. 16 as the log2 of the ratio of viability of PSMD2 KD versus control cells (log2 (shPSMD2/Control)). […] The Selleck natural product library (NPC) comprising 502 compounds in 5 doses and the. NIH bioactive compound library that includes 731 compounds in 4 doses were also screened using the same system.
A deeper understanding of the proteasome inhibitor resistant state could yield insights into the molecular mechanisms activated by cells to cope with proteotoxic stress and elucidate new therapeutic strategies for cancer. With these goals in mind, we screened mechanistically diverse small molecule libraries to identify compound sensitivities altered by the Lo19S and Hi-OXPHOS states. An initial screen was conducted in the isogenic T47D model with transient induction of the Lo19S state as described above, We evaluated >4300 mechanistically well-defined compounds within 4 libraries. The compounds included approved cancer drugs (Selleck anti-cancer library: CDL), common natural products (Natural product library: NPC) and an ^-NIH bioactives library (NIH). Each of these compounds was tested at ≥4 concentrations. (Table S5, data not shown), An additional 2866 compounds from the Boston University's Chemical Methodology and Library Development (CMLD-BU) small molecule collection was screened at a single dose (BULL, see Table S5).
(§1) Generation of the Lo19S T47D cell line—For the generation of the T47D Tet-inducible PSMD2 knockdown cell line—the TRIPZ vector with an inducible shRNA targeting PSMD2 was purchased from Dharmacon (clone V3THS_403760). It was introduced to the T47D cells according to manufactures protocol and cells were selected with puromycin 1 g/ml for one week. The cells were exposed to doxycycline for 24 hours and cells were FACS sorted for the top 10% of most RFP expressing cells (highest expression of shRNA). The cells were further cultured in the absence of doxycycline and PSMD2 knockdown was induced as specified in the text.
After 48 hours the cells were collected counted and plated (in the absence of dox) at 1000 cells/well in 384-well opaque, white assay plates (Coming, NY), 50 uL per well, and incubated overnight at 37° C./5% CO2. Compound stocks from the Cancer drug library containing 349 bioactive compounds that were arrayed in dose 10 nM, 100 nM, 1 uM, 10 uM (Selleck anti-cancer compound library L3000), the natural products library containing 502 compounds that were utilized in 5 doses (dilution of 1:1000 of 2ug/ml, 0.2 ug/ml, 0.002/ug/ml, 0.0002 ug/ml), the NIH bioactive library including 731 drugs in dose of 10 nM, 100 nM, 1 uM, 10 uM and the Boston University's CMLD (Chemical Methodology and Library Development) compound deck containing 2866 compounds in one dose (10 uM), including novel chemotypes that uniquely probe three-dimensional space by employing stereochemical and positional variation within the molecular framework as diversity elements in library design. 50 nl of compounds were pin-transferred (V&P Scientific, CA, pin tool mounted onto Tecan Freedom Evo 150 MCA96 head, Tecan, Calif.) into duplicate assay plates and incubated for 72 h. The DMSO content was 0.1% within each well, Per plate, there are 32 wells of DMSO vehicle control and 32 wells of positive control compounds. After three days of incubation, 10 uL of CellTiter-Glo (Promega, Wis.) was added to each well, incubated for 10 minutes and the luminescence output was read on the M1000 Infinite Pro plate reader (Tecan, Calif.).

T47D cells [3] = assay: The glucose/galactose drug screen; type: cell-based, human; conditions: 10 mM Glucose or Galactose, Selleck anti cancer and natural product libraries
Method: We conducted a second set of drug screens to identify unique sensitivities conferred by the Hi-OXPHOS state using parental T47D breast cancer cells (without 19S subunit suppression). For this screen, we used the NPC and CDL libraries as they contained the greatest number of hits in the Lo19S screen. We tested over 800 compounds at multiple concentrations and measured their effects on relative cell growth/viability when cells were grown under aerobic glycolysis conditions (glucose-supplemented medium) or forced mitochondrial respiration conditions (galactose-supplemented medium).
The glucose/galactose drug screen—T47D cells growing in regular media were collected counted and after centrifugation cells were re-suspended in RPM1 media without glucose containing 10% dialyzed serum with the addition of either 10 mM glucose or 10 mM galactose, Cells were then plated at 1000 cells/well in 384-well opaque, white assay plates (Coming, N.Y.), 50 uL per well, and incubated overnight at 37°C./5% CO2. Application of the drug libraries and cell viability was executed as described above for the Lo19S drug screen.

FDX1 = target: T1, FDX1 (Homo sapiens, UniProt P10109); assay: In vitro Fe-S cluster assembly with reduced FDX1 (absorbance at 456 nm); type: biochemical; conditions: x5 concentration relative to enzyme
T1 construct: made in house
T1 sequence (P10109 62-184): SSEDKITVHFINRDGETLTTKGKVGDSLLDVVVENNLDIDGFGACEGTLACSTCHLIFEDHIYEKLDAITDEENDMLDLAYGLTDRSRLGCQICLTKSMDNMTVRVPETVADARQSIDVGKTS
Description: FIGS. 47A-47C: Inhibition of Fe—S formation by elesclomol and variants (in-vitro). […] Note: “x(number) concentration” means that the indicated compound was present at 5 times the concentration of the enzyme.
(FIG. 53A) provides a schematic describing mitochondrial Fe—S cluster biosynthesis. The mitochondrial ISC (iron-sulfur cluster) core complex contains the scaffold protein ISCU and cysteine desulfurase (ACP-ISD11-NFS1)2. The latter catalyzes the conversion of cysteine to alanine and generates S° for iron sulfur cluster assembly. S° is reduced by FDX1. A [2Fe-2S] cluster is subsequently formed on ISCU. […] In vitro Fe—S cluster assembly was carried out with reduced. FDX1 as the reducing agent in the presence or absence of either 5× (green) or 10× (yellow) elesclomol (both relative to FDX1). Fe—S cluster formation was monitored by following the increase of absorbance at 456 nm. […] The red triangle denotes an NMR peak that became severely broadened. […] The [2Fe-2S] cluster in FDX1 is indicated by spheres.
The in vitro Fe—S cluster assembly was carried out with reduced FDX1 as the reducing agent and detected by following the increase of absorbance at 456 tun following the addition of either of 5× (green) or 10× (yellow, both relative to FDX1) compound-1. […] Fe—S formation was monitored by following the increase of absorbance at 456 nm. […] Cysteine desulfurase activity assay carried out with the indicated concentrations of elesclomol.

T47D cells [4] = assay: Cell viability, T47D cells with doxycycline-inducible PSMD2 shRNA (KD) vs control; type: cell-based, human; conditions: T47D, transient PSMD2 reduction
Method: FIGS. 37A-37E: Subunit suppression results in highly specific drug sensitivity alteration. Schematic representation of the drug screen setup. (FIG. 37A) 147D cells harboring a doxycycline-inducible PSMD2 shRNA were grown in the presence or absence of doxycycline for 48 hr. Cells were then collected, washed, and plated in the absence of doxycycline for 24 hr prior to exposure different compounds. Relative cell numbers were measured 3 days later. […] (FIGS. 37C-37E) The relative viability of the PSMD2 knockdown (KD) versus the control was calculated for replica experiments and the log2 of the ratio is plotted for 349 compounds from the Selleck anti-cancer L3000 drug library that were tested in 4 concentrations (FIG. 37C), the Selleck natural product library (NPC) comprising 502 compounds in 5 doses (FIG. 37D), and the NIH bioactive compound library that includes 731 compounds in 4 doses (FIG. 37E). Specific compounds are annotated.
The effect of transient PSMD2 reduction on growth of T47D cells in the presence of different proteasome inhibitors (bortezomib, MLN9708, carfilzomib, oprozornib) was tested. T47D cells harboring a doxycycline inducible control shRNA (GFP) or a doxycycline-inducible PSMD2 shRNA (TurhoRFP) were incubated with doxycycline for 3 days. Cells were then split and grown in the absence of Dox and proteasome inhibitors were then added at various concentrations. Cells were maintained in culture and then counted.
as §1, with “For” for “Generation of the Lo19S T47D cell line—For”, “line- the” for “line—the”, “Dhannacon” for “Dharmacon”, “μg/ml” for “g/ml”, “relevant Examples. The TRIPZ control GFP vector was created by removing the turboRFP from the TRIPZ control vector by digestion with Agel and ClaI and replacing it with GFP amplified with primers flanking with Agel and Clal restriction sites.” for “text.”
Cell Viability Assay—Relative cell growth and survival were measured in 96-well microplate format in the shRNA experiments and in 384 well format in the drug toxicity assays, by using the fluorescent detection of resazurin dye reduction as an endpoint (544 nm excitation and 590 run emission). 2,500 cells in 96 wells format or 1,000 cells in 384 well format were plated 24 hours before compound exposure (for 72 hours or indicated time). Each analysis was performed at least with three replicas.

[5] = tested on: MCF7, HEK293 and T47D cells; assay: Viability of cells grown in glucose (glycolytic) vs galactose (Hi-OXPHOS); type: cell-based, human; conditions: screen
Method: FIGS. 40A-40D: Cancer cell metabolism alters sensitivity to elesclomol.
FIGS. 41A-41B: Cancer cell metabolism alters sensitivity to elesclomol.
FIGS. 51A-51D: Elesclomol preferentially targets cells in the Hi-OXPHOS state. […] The relative cell growth (color coded) was analyzed 72 hours post compound addition. Plotted are the mean SD of at least three replicas and the calculated EC50s (FIGS. 51B-51C). […] Reactive groups are indicated with a colored circle.
FIGS. 57A-57C: Elesclomol preferentially targets cells in the Hi-OXPHOS state. […] Analogs named compound 1-6. […] Plotted are the mean SD of at least three replicas and the calculated EC50s (FIG. 57A and FIG. 57C).

Compound | shift of surviving population toward PSMD2 shRNA cells (T47D cells [1]) | relative viability change of cells grown in glucose versus galactose (T47D cells [3]) | other results
CC(C)C[C@H](NC(=O)CNC(=O)c1cc(Cl)ccc1Cl)B(O)O [MLN2238] | substantially shifted the populations of surviving cells | strongest hits in this screen | viability of PSMD2 KD versus control cells (log2 (shPSMD2/Control)) [2]: selectively reduce viability of control cells versus PSMD2 KD cells
CN(NC(=O)CC(=O)NN(C)C(=S)c1ccccc1)C(=S)c1ccccc1 [SAT-4783] | – | – | in vitro formation of Fe-S clusters mediated by FDX1 (FDX1): inhibition
COC[C@H](NC(=O)c1cnc(C)s1)C(=O)N[C@@H](COC)C(=O)N[C@@H](Cc1ccccc1)C(=O)[C@@]1(C)CO1 [oprozomib] | substantially shifted the populations of surviving cells | – | resistance of cells harboring PSMD2 shRNA vs parental line (EC50) (T47D cells [4]): EC50 values increased considerably
O=C(/C=C/c1cccnc1)NCCCCC1CCN(C(=O)c2ccccc2)CC1 [APO866] | – | predominantly more sensitive; also recorded: strongest hits in this screen | targeting of glycolytic cancer cells [5]: preferentially targets glycolytic cancer cells
